Measurements reported in ChEMBL document CHEMBL4651402, “Screening of ~5500 FDA-approved drugs and clinical candidates for anti-SARS-CoV-2 activity” (2021).

Tested on: SARS-CoV-2
Experiment: microbe, parasite or virus in culture
Conditions: Severe acute respiratory syndrome coronavirus 2, Vero C1008, 48 h

| SMILES | IC50 [µM] | IC50 (read-out: pIC50 (converted)) [µM] |
| --- | --- | --- |
| C[C@H](C(=O)O)c1ccc2cc(OCc3ccc4ccccc4n3)ccc2c1 | > 20 | > 20 |
| CCOCC(O)COc1ccc(NC(=O)CC[S+](C)C)cc1 (configuration not stated) | > 20 | > 20 |
| C[C@H]1CN([C@H]2CC[C@](C#N)(c3ccc(F)cc3)CC2)CC[C@@]1(C(=O)O)c1ccccc1 | > 20 | > 20 |
| CCN(CCNC(=O)Nc1ccccc1Br)c1cccc(C)c1 | > 20 | > 20 |
| CC(=O)N[C@@H](CCC(N)=O)C(=O)O | > 20 | > 20 |
| O=c1cc(-c2ccc(O)cc2)oc2c(C3O[C@H](CO)[C@@H](O)[C@H](O)[C@H]3O)c(O)cc(O)c12 (some centres not stated) | > 20 | > 20 |
| CN1CC(=O)N2[C@@H](c3ccc4c(c3)OCO4)c3[nH]c4ccccc4c3C[C@@H]2C1=O | > 20 | > 20 |
| COc1ccc2c3c1OC1C(O)C=CC4C(C2)[N+](C)(C)CCC341 (configuration not stated) | > 20 | > 20 |
| CN1CCCN=C1/C=C/c1cccs1 | > 20 | > 20 |
| COCCCOc1cc(C[C@@H](C[C@H](N)[C@@H](O)C[C@H](C(=O)NCC(C)(C)C(N)=O)C(C)C)C(C)C)ccc1OC | > 20 | > 20 |
| COc1ccc2cc1Oc1cc3c(cc1OC)CC[N+](C)(C)C3Cc1ccc(cc1)Oc1c(OC)c(OC)cc3c1C(C2)[N+](C)(C)CC3 (configuration not stated) | > 20 | > 20 |
| Cc1cc(/C=C\C#N)cc(C)c1Nc1ccnc(Nc2ccc(C#N)cc2)n1 | > 20 | > 20 |
| CC(C)(C)C(=O)Oc1ccc2c(c1)O[C@H](c1ccc(OCCN3CCCCC3)cc1)C1=C2COc2cc(OC(=O)C(C)(C)C)ccc21 | > 20 | > 20 |
| Nc1nc(=O)n([C@@H]2O[C@H](CO)[C@@H](O)[C@H]2F)cc1I | > 20 | > 20 |
| C[C@]1(COc2ccc(N3CCC(Oc4ccc(OC(F)(F)F)cc4)CC3)cc2)Cn2cc([N+](=O)[O-])nc2O1 | > 20 | > 20 |
| Cc1cn(C2CC(N=[N+]=[N-])C(CO)O2)c(=O)nc1N (configuration not stated) | > 20 | > 20 |
| O=C(O)c1cccc(-c2noc(-c3ccccc3F)n2)c1 | > 20 | > 20 |
| N=C(N)c1ccc(CNC(=O)[C@@H]2CCN2C(=O)[C@H](NCC(=O)O)C2CCCCC2)cc1 | > 20 | > 20 |
| CC(=O)N1CCN(c2ccc(OC[C@@H]3CO[C@](Cn4ccnc4)(c4ccc(Cl)cc4Cl)O3)cc2)CC1 | > 20 | > 20 |
| CSc1ccc2ncn(/C=C/C(=O)O)c(=O)c2c1 | > 20 | > 20 |
| Cc1c(-c2ccnn2C)cc(C(=O)NCc2ccc(S(C)(=O)=O)cn2)c(=O)n1-c1cccc(C(F)(F)F)c1 | > 20 | > 20 |

| SMILES | IC50 [µM] | IC50 (read-out: pIC50 (converted)) [µM] |
| --- | --- | --- |
| CN1C(=O)N(c2cc(Cl)cc(Cl)c2)C(=O)[C@@]1(C)Cc1ccc(Br)cc1 | > 20 | > 20 |
| C[C@H]1c2nnn(-c3ncc(F)cn3)c2CCN1C(=O)c1cccc(C(F)(F)F)c1Cl | > 20 | > 20 |
| CN1CC[C@@H](c2c(O)cc(O)c3c(=O)cc(-c4ccccc4Cl)oc23)[C@@H]1CO | > 20 | > 20 |
| OCC(O)C(O)CO (configuration not stated) | > 20 | > 20 |
| CCOC(=O)C1=C(CN2CCOCC2)NC(c2nccs2)=N[C@@H]1c1ccc(F)cc1Br | > 20 | > 20 |
| O=C1C=CC(=O)c2c1ccc1c2ccc2ccccc21 | > 20 | > 20 |
| CC(C(=O)Nc1ccc(Cl)cc1)[C@H]1CC[C@@H](c2ccnc3ccc(F)cc32)CC1 (some centres not stated) | > 20 | > 20 |
| CC1(C)CC[C@]2(C(=O)O)CC[C@]3(C)C(=CCC4[C@@]5(C)CC[C@@H](O)[C@@](C)(CO)C5CC[C@]43C)C2C1 (some centres not stated) | > 20 | > 20 |
| C=C1CC2C3C=C(C)C4=CC(=O)CCC4(C)C3CCC2(C)C1(OC(C)=O)C(C)=O (configuration not stated) | > 20 | > 20 |
| COc1cc(C)c2c(c1C=O)Oc1c(c(C)c(O)c3c1[C@H](O)OC3=O)OC2=O | > 20 | > 20 |
| [2H][C@]1(O)[C@@H](CO)O[C@@H](n2ccc(N)nc2=O)[C@]1(C)O | > 20 | > 20 |
| CCN1C[C@]2(COC)CC[C@H](O)[C@]34C5C[C@@H]6[C@@H](OC)C[C@@](O)(C5[C@H]6OC)[C@@](O)([C@H]13)[C@@H](OC)C24 (some centres not stated) | > 20 | > 20 |
| NC1=NC(=O)N(C2CC(O)C(CO)O2)CN1 (configuration not stated) | > 20 | > 20 |
| COc1cccc2c1C(=O)c1c(O)c3c(c(O)c1C2=O)CC(O)(/C(C)=N/NC(=O)c1ccccc1)CC3OC1CC(N)C(O)C(C)O1 (configuration not stated) | > 20 | > 20 |
| CC(O)C(=O)Nc1c(I)c(C(=O)NC(CO)CO)c(I)c(C(=O)NC(CO)CO)c1I (configuration not stated) | > 20 | > 20 |
| CC(C)(C)NC(=O)c1nn(-c2ccc(F)cc2F)c2c1C1CCC2C1 (configuration not stated) | > 20 | > 20 |
| C[C@H](COC(=O)[C@@H](N)Cc1ccc(O)c(O)c1)OC(=O)c1ccccc1 | > 20 | > 20 |
| CC(C)(C)OC(=O)N1CCC[C@H]1CO | > 20 | > 20 |
| CCN(CC)C(=O)C1C=C2c3cccc4[nH]cc(c34)CC2N(C)C1 (configuration not stated) | > 20 | > 20 |
| COc1cc2nccc(Oc3ccc(NC(=O)c4cn(C(C)C)c(=O)n(-c5ccc(F)cc5)c4=O)cc3F)c2cc1OC | > 20 | > 20 |
| CC1(C)SCCN(S(=O)(=O)c2ccc(Oc3ccncc3)cc2)[C@@H]1C(=O)NO | > 20 | > 20 |

| SMILES | IC50 [µM] | IC50 (read-out: pIC50 (converted)) [µM] |
| --- | --- | --- |
| C=C1[C@@H](C)[C@H]2[C@H](Cc3ccccc3)NC(=O)[C@]23OC(=O)/C=C\[C@H](O)CCC[C@@H](C)C/C=C\[C@H]3[C@@H]1O | > 20 | > 20 |
| O=C(Cn1c2ccccc2c2c(N3CCCC3)nc(N3CCCC3)nc21)N1CCCC1 | > 20 | > 20 |
| COc1ccc2c3c1O[C@H]1[C@@H](O)C=C[C@@]4(O)[C@@H](C2)N(C)CC[C@]314 | > 20 | > 20 |
| CN(C)N=Nc1ccc(C(=O)O)cc1 | > 20 | > 20 |
| C=C[C@@H]1CN2CCC1C[C@@H]2[C@H](O)c1ccnc2ccccc12 (some centres not stated) | > 20 | > 20 |
| O=C1NC(=O)[C@H](c2cn3c4c(cccc24)CCC3)[C@H]1c1c[nH]c2ccccc12 | > 20 | > 20 |
| C[14C](C)(c1ccc(O)cc1)c1ccc(O)cc1 | > 20 | > 20 |
| Cc1ccc([C@@]23Cn4cccc4C(=O)N2CCN3C(=O)c2conc2C)cn1 | > 20 | > 20 |
| C/C(=C\C(=O)OCCCCCCCCC(=O)O)C[C@@H]1OC[C@H](C[C@@H]2O[C@H]2[C@H](C)[C@H](C)O)[C@@H](O)[C@@H]1O | > 20 | > 20 |
| CC(C(=O)O)C1CCC2C3CC=C4C[C@@H](O)CC[C@]4(C)C3CC[C@]12C (some centres not stated) | > 20 | > 20 |
| C[C@H](Oc1ccc2[nH]nc(/C=C/c3cnn(CCO)c3)c2c1)c1c(Cl)cncc1Cl | > 20 | > 20 |
| N=C(N)N1CCCC(CNC(=O)CC(NS(=O)(=O)c2ccc3ccccc3c2)C(=O)N(CC(=O)O)C2CC2)C1 (configuration not stated) | > 20 | > 20 |
| CCCCCCCCCCNCCN[C@@]1(C)C[C@H](O[C@H]2[C@H](Oc3c4cc5cc3Oc3ccc(cc3Cl)[C@H](O)[C@@H](NC(=O)[C@@H](CC(C)C)NC)C(=O)N[C@@H](CC(N)=O)C(=O)N[C@H]5C(=O)N[C@@H]3C(=O)N[C@H](C(=O)N[C@H](C(=O)O)c5cc(O)c(CNCP(=O)(O)O)c(O)c5-c5cc3ccc5O)[C@@H](O)c3ccc(c(Cl)c3)O4)O[C@H](CO)[C@@H](O)[C@@H]2O)O[C@@H](C)[C@H]1O | > 20 | > 20 |
| CC(C)[C@H](O)C(=O)N[C@@H](C)C(=O)N[C@@H]1C(=O)N(C)CCc2ccccc21 | > 20 | > 20 |
| CC(C)(C)NC(=O)[C@@H]1CN(Cc2cccnc2)CCN1C[C@@H](O)C[C@@H](Cc1ccccc1)C(=O)N[C@H]1c2ccccc2C[C@H]1O | > 10 | > 10 |
| O=C(O)CCCN1CCC[C@H]1COc1ccc(Oc2ccc(Cl)cc2)cc1 | > 20 | > 20 |
| Cc1cccc(Cl)c1C(=O)N[C@@H](Cc1ccc(NC(=O)c2c(Cl)cccc2Cl)cc1)C(=O)O | > 20 | > 20 |
| c1ccc2c(c1)CC[C@H](CNCCCNC1=NCCCN1)O2 | > 20 | > 20 |
| C=C1CC[C@@]2(O)[C@H]3Cc4ccc(O)c5c4[C@@]2(CCN3CC2CC2)[C@H]1O5 | > 20 | > 20 |
